One test concerns HepG2. The test is described as follows: Cytotoxicity against HepG2. The format is cell-based. The settings on record: HepG2 human cell line.
The next test relates to large panel of pathogens. The settings on record: pure DD; cited from earlier work.

No end group written: not given here.

On to “D32: engineered darobactin, core peptide WNWCKRW, cysteine disulfide-bonded to L-cysteine and lactic acid (not fully specified; also: Cys4 disulfide-bonded to L-cysteine, lactic acid attached, position not given here)”, for which, in the test on HepG2, the IC50 (commonly the concentration needed to halve the response being measured) is more than 37 µg/mL.

Consider “WNWTRSF (also: bicyclic or more (positions not given here)) [DD]”, for which the “decrease in activity when comparing DA and DD, fold” value with large panel of pathogens is given as 16 fold.
